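Protocol summary: plate cells (96-well), add compound at 5 concentrations, incubate 48 h, interpolate endpoints linearly. The concentration for 50% growth inhibition is given as GI50.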 Activity calls are given as the source filed them. No stated cut-off is given here; in the data, active = GI50 up to about 1.1 µM and inactive = higher.
Columns and labels:
Assay in all cases: growth of human tumour cells (NCI), 48 h
ACHN = tested on: ACHN
KM12 = tested on: KM12
SK-MEL-5 = tested on: SK-MEL-5
EKVX = tested on: EKVX
HCT-116 = tested on: HCT-116
HCC 2998 = tested on: HCC 2998
SN12C = tested on: SN12C
SNB-75 = tested on: SNB-75
NCI-H226 = tested on: NCI-H226
MOLT-4 = tested on: MOLT-4
NCI-H23 = tested on: NCI-H23
MDA-N = tested on: MDA-N
UACC-257 = tested on: UACC-257
HOP-92 = tested on: HOP-92
SF-539 = tested on: SF-539
MCF7 = tested on: MCF7
A549 = tested on: A549
TK-10 = tested on: TK-10
Malme-3M = tested on: Malme-3M
T47D = tested on: T47D

Measured: GI50

O=C(Cc1ccccc1)Nn1c(-c2ccccc2)nc2ccccc2c1=O
inactive: ACHN > 100 µM | KM12 > 100 µM | SK-MEL-5 2.38 µM | EKVX > 100 µM | HCT-116 > 100 µM | HCC 2998 > 100 µM | SN12C > 100 µM | SNB-75 8.83 µM | NCI-H226 > 100 µM | MOLT-4 > 100 µM | NCI-H23 > 100 µM | MDA-N > 100 µM | UACC-257 > 100 µM | HOP-92 > 100 µM | SF-539 > 100 µM | MCF7 > 100 µM | A549 > 100 µM | TK-10 > 100 µM | Malme-3M > 100 µM | T47D > 100 µM
